# Reference: PubChem BioAssay AID1918933 (Molecular Pharmacology Branch, DTP, NCI, 2023)
# Tested on: 186277-243-T-J2-PDC complex spheroid viability
# Experiment: Anticancer human tumor 186277-243-T-J2-PDC patient-derived colon adenocarcinoma cell line growth inhibition
# Conditions: for IC50: curve of first compound; for viability, T/C: stronger effect = lower value
# Source text: Multicellular complex tumor spheroid response to LSD1 Inhibitor Iadademstat in combination with a variety of drugs and investigational agents in selected tumor cell lines
# The current study was undertaken to assess response to LSD1 inhibitors in combination with standard-of-care drugs and investigational agents in solid tumor complex spheroid models as well as in the K-562 leukemia. Complex spheroids include a stromal component modeled by human endothelial cells (HUVEC) and fibroblasts modeled by human mesenchymal stem cells (MSCs). The concentration ranges selected for each drug and investigational agent were based upon clinically achievable concentrations if the clinical Cmax of the agent was known.
# Compounds. The drugs and investigational agents used in this study are listed on Table 1. All of the agents used, including staurosporine (NSC755774) and gemcitabine (NSC613327), were obtained from the Developmental Therapeutics Program, NCI. FDA-approved anticancer drugs are available from the NCI at http://dtp.nci.nih.gov/branches/dscb/oncology_drugset_explanation.html. Drugs and investigational agents were >95% pure by proton nuclear magnetic resonance (NMR) and liquid chromatography/mass spectrometry (LC/MS). Stock solutions were prepared at 400x in DMSO, stored at -70 degrees C, and diluted in fresh medium prior to their use. The final concentration of DMSO in cell culture wells never exceeded 0.25% (v/v). The FDA-approved anticancer drug set is available from the Developmental Therapeutics Program at https://dtp.cancer.gov/organization/dscb/obtaining/available_plates.htm. All drugs and investigational agents were tested over a range starting from a high concentration at or near the clinical Cmax and decreasing in half-log increments. If the clinical Cmax for an agent had not been determined, the highest concentration tested was 10 microM.
# Cell Lines. The patient-derived cancer cell (PDC) lines: 292921-168-R-J2-PDC, K24384-001-R-PDC, and 521955-158-R2-J5-PDC pancreatic carcinomas, 556581-035-R-J1 ovarian carcinoma, 324938-238-R-J1-PDC, 855422-203-R-J1-PDC and 883617-216-R-J1-PDC urothelial bladder carcinomas, 743489-274-T-PDC renal cell carcinoma, 138582-R-J1 Merkel cell tumor, K60290-347-R-J1 and K57222-313-R-J1-PDC glioblastomas, 653999-131-R-J2-PDC, LG0703-F948-PDC, and 349418-098-R-PDC non-small cell lung carcinomas, 885512-296-R-J2-PDC, 171881-019-R-J1-PDC breast carcinomas and 186277-243-T-J2-PDC and 233499-124-R-J2-PDC colon carcinomas were obtained from the NCI Patient-Derived Models Repository (PDMR, https://pdmr.cancer.gov). The established cell lines NCI/ADR-RES (RRID:CVCL_14520 and OVCAR-5 (RRID:CVCL_1628) ovarian carcinomas, 786-O (RRID:CVCL_1051) and A498 (RRID:CVCL_A498) renal cell carcinoma, NCI-H211 (ATCC, cat. CRL-5824; RRID:CVCL_1529), NCI-H196 (ATCC, cat. CRL-5823, RRID:CVCL_1509), SW 1271 (ATCC, cat. CRL-2177, RRID:CVCL_1716) and NCI-H1876 (ATCC, cat. CRL-5902, RRID:CVCL_1503) small cell lung carcinomas, MDA-MB-231 (RRID:CVCL_0062) and MDA-MB-468 (RRID:CVCL_0419)breast carcinomas (10-12). Pooled donor human umbilical vein endothelial cells (HUVEC, Lonza, cat. CC-2519) and human mesenchymal stem cells (hMSC, Lonza, cat. PT-2501) were purchased from Lonza (Walkersville, MD).
# Cell Culture. All cells were maintained in an incubator at 37 degrees C and 5% CO2 with 95% humidity. The PDC lines were cultured according to standard operating procedures established by the NCI PDMR (https://pdmr.cancer.gov). Briefly all PDCs were thawed and cultured in Matrigel-coated flasks prepared with a working solution of 1X Ham's F-12 nutrient mix, without supplementation (Invitrogen, Waltham, MA, cat. 11765054), 100 U/mL penicillin-streptomycin (Invitrogen, cat. 15140122), and 2.5% Matrigel (Corning Inc., Corning, NY, cat. 354248) for the first three passages. […]
# [1] = second compound 0.1 µM, first compound 0.00949 µM
# [2] = second compound 0.1 µM, first compound 0.03 µM
# [3] = second compound 0.1 µM, first compound 0.0949 µM
# [4] = second compound 0.1 µM, first compound 0.3 µM
# [5] = second compound 0.1 µM, first compound 0.949 µM
# [6] = second compound 0.1 µM, first compound 3 µM
# [7] = second compound 0.316 µM, first compound 0.00949 µM
# [8] = second compound 0.316 µM, first compound 0.03 µM
# [9] = second compound 0.316 µM, first compound 0.0949 µM
# [10] = second compound 0.316 µM, first compound 0.3 µM
# [11] = second compound 0.316 µM, first compound 0.949 µM
# [12] = second compound 0.316 µM, first compound 3 µM
# [13] = second compound 1 µM, first compound 0.00949 µM
# [14] = second compound 1 µM, first compound 0.03 µM
# [15] = second compound 1 µM, first compound 0.0949 µM
# [16] = second compound 1 µM, first compound 0.3 µM
# [17] = second compound 1 µM, first compound 0.949 µM
# [18] = second compound 1 µM, first compound 3 µM
# [19] = second compound 3.16 µM, first compound 0.00949 µM
# [20] = second compound 3.16 µM, first compound 0.03 µM
# [21] = second compound 3.16 µM, first compound 0.0949 µM
# [22] = second compound 3.16 µM, first compound 0.3 µM
# [23] = second compound 3.16 µM, first compound 0.949 µM
# [24] = second compound 3.16 µM, first compound 3 µM
# [25] = second compound 10 µM, first compound 0.00949 µM
# [26] = second compound 10 µM, first compound 0.03 µM
# [27] = second compound 10 µM, first compound 0.0949 µM
# [28] = second compound 10 µM, first compound 0.3 µM
# [29] = second compound 10 µM, first compound 0.949 µM
# [30] = second compound 10 µM, first compound 3 µM
# 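Further: 7 day exposure to compounds.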
# 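Wherever viability, T/C is given: 100% = DMSO vehicle control viability.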
smiles,measurement,setting,value
Cn1ncnc1C1c2n[nH]c(=O)c3cc(F)cc(c23)NC1c1ccc(F)cc1 (stereo not given) + NC1CCC(NC2CC2c2ccccc2)CC1,IC50,second compound 0.1 µM,> 0.1 µM
same,IC50,second compound 0.316 µM,> 0.1 µM
same,IC50,second compound 1 µM,> 0.1 µM
same,IC50,second compound 3.16 µM,> 0.1 µM
same,IC50,second compound 10 µM,> 0.1 µM
same,"viability, T/C","second compound 0.1 µM, first compound 0.000316 µM",109%
same,"viability, T/C","second compound 0.1 µM, first compound 0.001 µM",105%
same,"viability, T/C","second compound 0.1 µM, first compound 0.00316 µM",111%
same,"viability, T/C","second compound 0.1 µM, first compound 0.01 µM",107%
same,"viability, T/C","second compound 0.1 µM, first compound 0.0316 µM",109%
same,"viability, T/C","second compound 0.1 µM, first compound 0.1 µM",104%
same,"viability, T/C","second compound 0.316 µM, first compound 0.000316 µM",113%
same,"viability, T/C","second compound 0.316 µM, first compound 0.001 µM",107%
same,"viability, T/C","second compound 0.316 µM, first compound 0.00316 µM",109%
same,"viability, T/C","second compound 0.316 µM, first compound 0.01 µM",108%
same,"viability, T/C","second compound 0.316 µM, first compound 0.0316 µM",103%
same,"viability, T/C","second compound 0.316 µM, first compound 0.1 µM",96.8%
same,"viability, T/C","second compound 1 µM, first compound 0.000316 µM",111%
same,"viability, T/C","second compound 1 µM, first compound 0.001 µM",107%
same,"viability, T/C","second compound 1 µM, first compound 0.00316 µM",110%
same,"viability, T/C","second compound 1 µM, first compound 0.01 µM",107%
same,"viability, T/C","second compound 1 µM, first compound 0.0316 µM",99.6%
same,"viability, T/C","second compound 1 µM, first compound 0.1 µM",97.8%
same,"viability, T/C","second compound 3.16 µM, first compound 0.000316 µM",109%
same,"viability, T/C","second compound 3.16 µM, first compound 0.001 µM",99%
same,"viability, T/C","second compound 3.16 µM, first compound 0.00316 µM",109%
same,"viability, T/C","second compound 3.16 µM, first compound 0.01 µM",103%
same,"viability, T/C","second compound 3.16 µM, first compound 0.0316 µM",99.3%
same,"viability, T/C","second compound 3.16 µM, first compound 0.1 µM",104%
same,"viability, T/C","second compound 10 µM, first compound 0.000316 µM",107%
same,"viability, T/C","second compound 10 µM, first compound 0.001 µM",113%
same,"viability, T/C","second compound 10 µM, first compound 0.00316 µM",102%
same,"viability, T/C","second compound 10 µM, first compound 0.01 µM",104%
same,"viability, T/C","second compound 10 µM, first compound 0.0316 µM",96%
same,"viability, T/C","second compound 10 µM, first compound 0.1 µM",108%
COc1cc(C2c3cc4c(cc3C(OC3OC5COC(C)OC5C(O)C3O)C3COC(=O)C23)OCO4)cc(OC)c1O (stereo not given) + NC1CCC(NC2CC2c2ccccc2)CC1,IC50,second compound 0.1 µM,2.71 µM
same,IC50,second compound 0.316 µM,2.75 µM
same,IC50,second compound 1 µM,> 3 µM
same,IC50,second compound 3.16 µM,> 3 µM
same,IC50,second compound 10 µM,> 3 µM
same,"viability, T/C",[1],93%
same,"viability, T/C",[2],125%
same,"viability, T/C",[3],144%
same,"viability, T/C",[4],98.6%
same,"viability, T/C",[5],74.2%
same,"viability, T/C",[6],46.9%
same,"viability, T/C",[7],120%
same,"viability, T/C",[8],121%
same,"viability, T/C",[9],150%
same,"viability, T/C",[10],98.7%
same,"viability, T/C",[11],72.9%
same,"viability, T/C",[12],46.1%
same,"viability, T/C",[13],109%
same,"viability, T/C",[14],111%
same,"viability, T/C",[15],150%
same,"viability, T/C",[16],99.5%
same,"viability, T/C",[17],71.4%
same,"viability, T/C",[18],49.2%
same,"viability, T/C",[19],111%
same,"viability, T/C",[20],111%
same,"viability, T/C",[21],155%
same,"viability, T/C",[22],104%
same,"viability, T/C",[23],77.6%
same,"viability, T/C",[24],52.3%
same,"viability, T/C",[25],113%
same,"viability, T/C",[26],111%
same,"viability, T/C",[27],150%
same,"viability, T/C",[28],109%
same,"viability, T/C",[29],81.5%
same,"viability, T/C",[30],57.4%
CCN(c1cc(-c2ccc(CN3CCOCC3)cc2)cc(C(=O)NCc2c(C)cc(C)[nH]c2=O)c1C)C1CCOCC1 + NC1CCC(NC2CC2c2ccccc2)CC1,IC50,second compound 0.1 µM,> 3 µM
same,IC50,second compound 0.316 µM,> 3 µM
same,IC50,second compound 1 µM,> 3 µM
same,IC50,second compound 3.16 µM,> 3 µM
same,IC50,second compound 10 µM,> 3 µM
same,"viability, T/C",[1],108%
same,"viability, T/C",[2],94%
same,"viability, T/C",[3],108%
same,"viability, T/C",[4],116%
same,"viability, T/C",[5],105%
same,"viability, T/C",[6],110%
same,"viability, T/C",[7],112%
same,"viability, T/C",[8],102%
same,"viability, T/C",[9],110%
same,"viability, T/C",[10],112%
same,"viability, T/C",[11],113%
same,"viability, T/C",[12],113%
same,"viability, T/C",[13],122%
same,"viability, T/C",[14],121%
same,"viability, T/C",[15],108%
same,"viability, T/C",[16],111%
same,"viability, T/C",[17],111%
same,"viability, T/C",[18],102%
same,"viability, T/C",[19],110%
same,"viability, T/C",[20],115%
same,"viability, T/C",[21],107%
same,"viability, T/C",[22],117%
same,"viability, T/C",[23],121%
same,"viability, T/C",[24],111%
same,"viability, T/C",[25],105%
same,"viability, T/C",[26],94.8%
same,"viability, T/C",[27],95.9%
same,"viability, T/C",[28],107%
same,"viability, T/C",[29],109%
same,"viability, T/C",[30],98.3%
